# Assay results published in patent publication US20220202899A1, “COMPOSITION FOR PREVENTION OR TREATMENT OF HAIR LOSS INCLUDING HAPLN1” (HAPLNSCIENCE INC., priority 2019, published 2022).
# How the values were obtained:
# p-MEK1/2 = p-MEK1/2 in human hair germinal matrix cells stimulated with TGF-β2 (Western blotting); type: cell-based; conditions: HAPLN1 25 ng/mL and/or HA 25 μg/mL; TGF-β2 2 ng/mL, 1 hour
# Experimental: (§1) Human hair germinal matrix cells were dispensed into a poly-D-lysine 6-well plate at a concentration of 5.0×10^4 per well and cultured for 24 hours. After 24 hours, the medium was removed and replaced with a new serum-free medium. HAPLN1 was treated with 25 ng/mL and HA with 25 μg/mL, incubated for 23 hours, and then stimulated with TGF-β2 (2 ng/mL) for 1 hour. After collecting cells, a lysis buffer (25 mM Tris-HCl, 1 mM EDTA, 0.1% Triton-X100, phosphatase inhibitor, and protease inhibitor) was added, and all the cells were broken through sonication. p-ERK1/2, p-Smad2, p-MEK1/2, and p-c-Raf in the sample were measured using Western blotting. Optical densities of p-ERK1/2, p-Smad2, p-MEK1/2, and p-c-Raf were compared to those of ERK1/2, Smad2/3, MEK1, and c-Raf using a densitometer. Here, ERK1/2, Smad2/3, MEK1, and c-Raf were used as loading controls.
# p-Smad2 = p-Smad2 in human hair germinal matrix cells stimulated with TGF-β2 (Western blotting); type: cell-based; conditions: HAPLN1 25 ng/mL and/or HA 25 μg/mL; TGF-β2 2 ng/mL, 1 hour
# Experimental: as §1
# TβRII [1] = test: TβRII protein after exogenous HAPLN1 and/or HA in endogenous HAPLN1-deficient human hair germinal matrix cells; type: cell-based; conditions: after HAPLN1 siRNA; HAPLN1 25 ng/mL and/or HA 25 μg/mL; TGF-β2 2 ng/mL, 23 hours
# Experimental: (§2) The human hair germinal matrix cells were dispensed into a poly-D-lysine 6-well plate at a concentration of 5.0×10^4 per well and cultured for 24 hours. After 24 hours, the medium was removed and replaced with a low-serum medium. HAPLN1 siRNA and scrambled siRNA were added at a concentration of 25 pmol per well and incubated for 24 hours. After the siRNA and the medium were all removed, the medium was replaced with a serum-free medium having HAPLN1 (25 ng/mL) or HA (25 μg/mL) added thereto, and cultured for 1 hour. TGF-β2 (2 ng/mL) was treated and incubated for 23 hours. After collecting cells, a lysis buffer (25 mM Tris-HCl, 1 mM EDTA, 0.1% Triton-X100, phosphatase inhibitor, and protease inhibitor) was added, and all the cells were broken through sonication. TβRII in the sample was measured using Western blotting. The optical density of TβRII was compared to that of GAPDH using a densitometer.
# p-c-Raf = p-c-Raf in human hair germinal matrix cells stimulated with TGF-β2 (Western blotting); type: cell-based; conditions: HAPLN1 25 ng/mL and/or HA 25 μg/mL; TGF-β2 2 ng/mL, 1 hour
# Experimental: as §1
# [2] = system: human hair germinal matrix cells; test: Cell proliferation of human hair germinal matrix cells, CCK-8 (Example 10); type: cell-based; conditions: HAPLN1 25 ng/mL and/or HA 25 μg/mL; TGF-β2 2 ng/mL, 23 hours
# Experimental: Human hair germinal matrix cells were dispensed into a poly-D-lysine 96-well plate at a concentration of 2.0×10^4 per well and cultured for 24 hours. After 24 hours, the medium was removed and replaced with a new serum-free medium. HAPLN1 was treated with 25 ng/mL and HA with 25 μg/mL, incubated for 1 hour, and then stimulated with TGF-β2 (2 ng/mL) for 23 hours. CCK-8 (Enzo Biochem, NY, USA) was treated and incubated at 37° C. for 1 hour.
# p-ERK1/2 = p-ERK1/2 in human hair germinal matrix cells stimulated with TGF-β2 (Western blotting); type: cell-based; conditions: HAPLN1 25 ng/mL and/or HA 25 μg/mL, 23 hours; TGF-β2 2 ng/mL, 1 hour
# Experimental: as §1
# TβRII [3] = test: TβRII protein in human hair germinal matrix cells treated with HAPLN1 and/or HA, then TGF-β2 (Western blotting); type: cell-based; conditions: HAPLN1 25 ng/mL or HA 25 μg/mL alone; TGF-β2 2 ng/mL after 1 hour; 23 hours
# Experimental: Human hair germinal matrix cells were dispensed into a poly-D-lysine 6-well plate at a concentration of 5.0×10^4 per well and cultured for 24 hours. After 24 hours, the medium was removed and replaced with a new serum-free medium. HAPLN1 was treated with 25 ng/mL, HA was treated with 25 μg/mL, and after 1 hour, TGF-β2 (2 ng/mL) was treated. After 23 hours, cells were collected, a lysis buffer (25 mM Tris-HCl, 1 mM EDTA, 0.1% Triton-X100, phosphatase inhibitor, and protease inhibitor) was added, and all the cells were broken through sonication. TβRI and TβRII in the sample were measured using Western blotting. The optical density of TβRII was compared to that of GAPDH using a densitometer.
# cell membrane TβRII = test: Cell membrane TβRII protein (biotin labelling, immunoprecipitation, Western blotting); type: cell-based, human; conditions: HAPLN1 25 ng/mL and/or HA 25 μg/mL; TGF-β2 2 ng/mL
# Experimental: All proteins present in the cell membrane were labeled with biotin, and immunoprecipitation was performed with a biotin antibody to isolate only the cell membrane protein. In order to confirm changes in the ratio of TβRII among cell membrane proteins, Western blotting was performed. The specific experimental method will now be described.
# Human hair germinal matrix cells were dispensed into a poly-D-lysine 100 mm dish at a concentration of 2.7×10^6 and cultured for 24 hours. After 24 hours, the medium was removed and replaced with a new serum-free medium. HAPLN1 was treated with 25 ng/mL and HA with 25 μg/mL, and after 1 hour, TGF-β2 (2 ng/mL) was treated. To label biotin after 23 hours, EZ-Link™ Sulfo-NHS-LC-Biotin (Thermo Fisher Scientific, MA, USA) was treated at a concentration of 250 μg/mL and incubated at 4° C. for 1 hour. The biotin labeling reaction was terminated by treatment with 50 mM Tris-HCl. After collecting cells, a lysis buffer (50 mM Tris-HCl, 150 mM NaCl, 1% NP-40, phosphatase inhibitor, and protease inhibitor) was added, and all the cells were broken through sonication. Cell membrane proteins were isolated by performing immunoprecipitation experiments using anti-biotin antibodies. TβRII in the isolated membrane protein sample was measured using Western blotting. The optical density of TβRII was compared to that of GAPDH using a densitometer.
# TβRII [4] = test: TβRII protein after HAPLN1 and/or HA in CD44-deficient human hair germinal matrix cells; type: cell-based; conditions: after CD44 siRNA; HAPLN1 25 ng/mL and/or HA 25 μg/mL; TGF-β2 2 ng/mL, 23 hours
# Experimental: as §2, with “matrix cells, which were made to be deficient in CD44 by using CD44 siRNA,” for “matrix cells”, “medium. CD44” for “medium. HAPLN1”
# [5] = system: human hair germinal matrix cells; test: Hair germinal matrix cell proliferating effect, CCK-8 (Example 13); type: cell-based; conditions: 25 ng/ml; TGF-β2 condition not given
# Experimental: (§3) In the same manner as described above, HAPLN1 (25 ng/ml), CX3CL1 (25 ng/ml), CDON (25 ng/ml) or minoxidil (10 μM), and human recombinant TGF-β2 were diluted to a final concentration of 2 ng/ml, and the medium of the group containing TGF-β2 was replaced by 200 μl. To reduce an experimental variation, 3 wells per group were treated (triplication).
# (§4) After incubation for 23 hours, the plate was removed from the incubator, and 20 μl of CCK-8 (WST-8) solution was added to the plate containing the medium and the reagent per 200 μl of the medium for the reaction to be carried out at 37° C. for 1 hour.
# Human hair germinal matrix cells were released in a poly-D-lysine-coated flask using a mesenchymal stem cell medium (MSCM), and cultured in a 5% CO2 incubator at 37° C. When the cells were about 90% full, the cells were detached with a 0.05% Trypsin/EDTA solution, and then only the cells were recovered by centrifugation at 1000 rpm for 3 minutes. The recovered cells were dispensed into 96-well poly-D-lysine coated plates (BD bioscience) at 2.0×10^3 per well and cultured for 24 hours, and the final concentrations of HAPLN1, CX3CL1 and CDON were diluted to 25 ng/ml in a serum-free medium. The subsequent process was performed in the same manner as the experiment for the dermal papilla cells to measure the absorbance, and the results are shown in FIG. 22.
# [6] = system: human dermal papilla cells; test: Dermal papilla cell proliferating effect, CCK-8 (Example 13); type: cell-based; conditions: proteins 25 ng/ml, minoxidil 10 μM; TGF-β2 (2 ng/ml) present or absent
# Experimental: Human dermal papilla cells were cultured in a 37° C., 5% CO2 incubator using a dermal papilla cell proliferation medium (Promocell). When the cells were about 90% full, the cells were detached with a 0.05% Trypsin/EDTA solution and then centrifuged at 1000 rpm for 3 minutes to recover only the cells. The cells were dispensed into a 96-well plate at 2.0×10^3 per well, cultured for 24 hours, and HAPLN1, CX3CL1 and CDON were diluted to have a final concentration of 25 ng/ml in serum-free medium. After removing the existing culture medium, 200 μl of diluted HAPLN1, CX3CL1, and CDON were dispensed into each well and cultured for 1 hour. To reduce an experimental variation, 3 wells per group were treated (triplication). In addition, minoxidil, which is known to proliferate dermal papilla cells, was treated with 10 μM and set as a positive control.
# as §3, §4
Molecule,MEK1/2 activity (p-MEK1/2 compared to MEK1) (p-MEK1/2),phosphorylation of Smad2 (p-Smad2),TβRII protein in endogenous HAPLN1-deficient cells (TβRII [1]),c-Raf activity (p-c-Raf compared to c-Raf) (p-c-Raf),cell proliferation (absorbance at 450 nm) compared to the control group [2],ERK1/2 signaling (p-ERK1/2 compared to ERK1/2) (p-ERK1/2),TβRII protein (optical density compared to GAPDH) (TβRII [3]),cell membrane TβRII protein concentration (cell membrane TβRII),TβRII protein in CD44-deficient cells (TβRII [4]),hair germinal matrix cell proliferation (absorbance at 450 nm) [5],dermal papilla cell proliferation (absorbance at 450 nm) [6]
"Hyaluronic acid [HA, reference compound]",increased activities,no change,recovered,increased activities,promoted,activated,increased,increased,not confirmed that TβRII was recovered,,
"CX3CL1: protein expressed by a cell adhesion gene present in dermal papilla cells (protein, UniProt P78423 25-397, looked up) Fractalkine: QHHGVTKCNITCSKMTSKIPVALLIHYQQNQASCGKRAIILETRQHRLFCADPKEQWVKDAMQHLDRQAAALTRNGGTFEKQIGEVKPRTTPAAGGMDESVVLEPEATGESSSLEPTPSSQEAQRALGTSPELPTGVTGSSGTRLPPTPKAQDGGPVGTELFRVPPVSTAATWQSSAPHQPGPSLWAEAKTSEAPSTQDPSTQASTASSPAPEENAPSEGQRVWGQGQSPRPENSLEREEMGPVPAHTDAFQDWGPGSMAHVSVVPVSSEGTPSREPVASGSWTPKAEEPIHATMDPQRLGVLITPVPDAQAATRRQAVGLLAFLGLLFCLGVAMFTYQSLQGCPRKMAGEMAEGLRYIPRSCGSNSYVLVPV",,,,,,,,,,inhibiting cell proliferation,did not proliferate dermal papilla cells or rather inhibited proliferation thereof
"CDON: protein expressed by a cell adhesion gene present in dermal papilla cells (protein, UniProt Q4KMG0 26-1287, looked up) Cell adhesion …: DLAPYFTSEPLSAVQKLGGPVVLHCSAQPVTTRISWLHNGKTLDGNLEHVKIHQGTLTILSLNSSLLGYYQCLANNSIGAIVSGPATVSVAVLGDFGSSTKHVITAEEKSAGFIGCRVPESNPKAEVRYKIRGKWLEHSTENYLILPSGNLQILNVSLEDKGSYKCAAYNPVTHQLKVEPIGRKLLVSRPSSDDVHILHPTHSQALAVLSRSPVTLECVVSGVPAPQVYWLKDGQDIAPGSNWRRLYSHLATDSVDPADSGNYSCMAGNKSGDVKYVTYMVNVLEHASISKGLQDQIVSLGATVHFTCDVHGNPAPNCTWFHNAQPIHPSARHLTAGNGLKISGVTVEDVGMYQCVADNGIGFMHSTGRLEIENDGGFKPVIITAPVSAKVADGDFVTLSCNASGLPVPVIRWYDSHGLITSHPSQVLRSKSRKSQLSRPEGLNLEPVYFVLSQAGASSLHIQAVTQEHAGKYICEAANEHGTTQAEASLMVVPFETNTKAETVTLPDAAQNDDRSKRDGSETGLLSSFPVKVHPSAVESAPEKNASGISVPDAPIILSPPQTHTPDTYNLVWRAGKDGGLPINAYFVKYRKLDDGVGMLGSWHTVRVPGSENELHLAELEPSSLYEVLMVARSAAGEGQPAMLTFRTSKEKTASSKNTQASSPPVGIPKYPVVSEAANNNFGVVLTDSSRHSGVPEAPDRPTISTASETSVYVTWIPRANGGSPITAFKVEYKRMRTSNWLVAAEDIPPSKLSVEVRSLEPGSTYKFRVIAINHYGESFRSSASRPYQVVGFPNRFSSRPITGPHIAYTEAVSDTQIMLKWTYIPSSNNNTPIQGFYIYYRPTDSDNDSDYKRDVVEGSKQWHMIGHLQPETSYDIKMQCFNEGGESEFSNVMICETKVKRVPGASEYPVKDLSTPPNSLGSGGNVGPATSPARSSDMLYLIVGCVLGVMVLILMVFIAMCLWKNRQQNTIQKYDPPGYLYQGSDMNGQMVDYTTLSGASQINGNVHGGFLTNGGLSSGYSHLHHKVPNAVNGIVNGSLNGGLYSGHSNSLTRTHVDFEHPHHLVNGGGMYTAVPQIDPLECVNCRNCRNNNRCFTKTNSTFSSSPPPVVPVVAPYPQDGLEMKPLSHVKVPVCLTSAVPDCGQLPEESVKDNVEPVPTQRTCCQDIVNDVSSDGSEDPAEFSRGQEGMINLRIPDHLQLAKSCVWEGDSCAHSETEINIVSWNALILPPVPEGCAEKTMWSPPGIPLDSPTEVLQQPRET",,,,,,,,,,inhibiting cell proliferation,did not proliferate dermal papilla cells or rather inhibited proliferation thereof
